Assay results: US10675300B2, “Group 3 metal compounds and use thereof in the treatment of solid tumors” (UNIVERSITÀ DEGLI STUDI DI SALERNO, priority 2016, dated 2020)

System: DU145 (prostate cancer) and MDA.MB213 (Triple Negative breast cancer) cells
Experiment: MTT cell growth inhibition assay on human tumor cell lines
Format: cell-based
Conditions: 48 hours exposition; for IC50: read-out: DL50 (lethal dose 50, dose at which there is 50% of cell growth inhibition)
Excerpt: (§1) FIG. 1 the evaluation of the inhibitory activity of CAM2 (a), CAM3 (b) and CAM4 (c) on the cell growth of DU145 cells in presence of different concentrations, determined by MTT assay. The cell viability was expressed as percentage of proliferated cells with respect to the cells treated with the different compounds and the same cells used as control and
as §1, with “2” for “1”, “MDA.MB231” for “DU145”, “control.” for “control and”
MDA.MB213—Human cell line of breast cancer acquired by ATCC (American Tissue Cell Colture—ATCC® HTB-26™), triple negative for ER receptor
DU145—Human cell line of prostate cancer acquired by ATCC (American Tissue Cell Colture—ATCC® HTB-81™)
MTT Cell Proliferation Assay Kit—Purchased by TREVIGEN—Catalog #4890-025-K
The compound was dissolved in a solution of DMSO concentrated at 100%, therefrom the dilutions programmed according to the scheme shown in figure A and B are obtained and in 96-multiwell plates 2×10^4 cells are deposited (plated).
After 24 hours the compounds under study in contact with the cells at the pre-established concentrations are used, in order to determine the lethal dose 50, that is the dose thereat there is 50% of cell growth inhibition.
After 48 hours of exposition to our compound, the growth inhibition effect is determined by means of a colorimetric assay.
The MTT assay is a measurement of sensitivity of cell proliferation based upon the decrease in the salt of tetrazolium, 3, [4,5-dimethyithiazol-2-]-2,5-diphenyl-bromide-tetrazolium (MTT).
(§2) Changes in the cell proliferative activity caused by our compounds can be quantified with MTT. MTT is reduced to an insoluble colouring agent, by the mitochondrial enzymes associated to the metabolic activity. MTT reduction is mainly due to the glycolytic activity inside the cell associated to the presence of NADH and NADPH.
The compound was dissolved in a solution of DMSO concentrated at 100%, therefrom the dilutions programmed according to the scheme shown in figure A and B are obtained, and in 96-multiwell plates 2×10^4 cells are deposited (plated).
After 24 hours the compounds under study in contact with the cells at pre-established concentrations are used, in order to determine the lethal dose 50, that is the dose thereat there is 50% of cell growth inhibition.
as §2, with “The MTT assay is a measurement of cell proliferation sensitivity based upon the reduction in the salt of tetrazolium, 3, [4,5-dimethylthiazol-2-]-2,5-diphenyl bromide-tetrazolium (MTT). Changes” for “Changes”
The compound was dissolved in a solution of DMSO concentrated at 100%, therefrom the dilutions programmed according to the scheme shown in A e B are obtained, in 96-multiwell plates 2×10^4 cells are deposited (plated).
as §2, with “MTT assay is a measurement of the cell proliferation sensitivity based upon the reduction in the salt of tetrazolium, 3, [4,5-dimethylthiazol-2-]-2,5-diphenyl bromide-tetrazolium (MTT). Changes” for “Changes”

[1] = cell line not specified (DU145 / MDA.MB213)
[2] = 5 μM, cell line not specified (DU145 / MDA.MB213)

Substance | growth inhibition (10 μM (higher concentrations), cell line not specified) | DL50 (lethal dose 50, dose at which there is 50% of cell growth inhibition) [1] | growth inhibition (lower concentrations (not specified), cell line not specified) | growth inhibition [2] | growth inhibition (40 μM (higher concentrations), cell line not specified) | IC50 [1] | growth inhibition (20 μM, cell line not specified (DU145 / MDA.MB213))
[Cp-CH2—C6H5—OCH3)]ScCl2 [CAM3] | 95% | 5/10 | 40% | – | – | – | –
[Cp-CH2—C6H5—OCH3]2ScCl [CAM4] | – | – | – | 14% | 88% | 20 µM | –
[Cp-CH2—C6H5—OCH3]2YCl [CAM2] | – | – | – | 58% | – | < 5 µM | 95%
